# Laboratory results taken from patent publication US11311537B2, “Diagnosis and treatment of lymphoproliferative disorders with PARP inhibitors” (UNIVERSITY OF MIAMI, priority 2016, dated 2022).
# “Also recorded” adds a separate entry of the source.
# How the values were obtained:
# [1] = test system: DLBCL LMO2+ cell lines (OCI-Ly8, OCI-Ly19, DOHH2); experiment: Colony formation assay, olaparib in combination with genotoxic agents (Combination Index); type: cell-based, human
# From the text: Only colonies with 50 or more cells where counted. *P<0.001, Two-way ANOVA. […] CI, Combination Index (CI<1 indicates a synergistic effect).
# DOHH2 = experiment: MTS cell proliferation assay, olaparib IC50; type: cell-based; conditions: Homo sapiens, DOHH-2; DOHH2, DLBCL LMO2+
# Description: (§1) Proliferation and cell cycle studies: Cell proliferation was studied using cell titer 96 Aqueous Non-radioactive cell proliferation (MTS) kit from Promega. This assay was performed following manufacturer's instructions. For cell cycle studies, cells were fixed with 70% cold ethanol and incubated overnight at 4° C. Next, cells were washed once with 1×PBS and incubated with 50 μg/ml Propidium Iodide (Invitrogen) and RNAse (0.1 mg/ml) for 30 min. Cells were analyzed using a flow cytometer (BD FACS Canto-II analyzer).
# OCI-19 = experiment: MTS cell proliferation assay, olaparib IC50; type: cell-based; conditions: Homo sapiens; OCI-19, DLBCL LMO2+
# Description: as §1
# OCI-Ly8 = experiment: MTS cell proliferation assay, olaparib IC50; type: cell-based; conditions: Homo sapiens; OCI-Ly8, DLBCL LMO2+
# Description: as §1
# [2] = test system: DLBCL LMO2+ cell lines (OCI-Ly8, OCI-Ly19 and DOHH2); experiment: MTS cell proliferation assay; type: cell-based, human; conditions: OCI-Ly8, OCI-Ly19, DOHH2 compared with IMR90, HCC1187, OCI-Ly1, U2932; p<0.001 by ANOVA
# Description: as §1
# [3] = test system: DLBCL LMO2- and control cell lines (OCI-Ly1, U2932, IMR90, HCC1187); experiment: MTS cell proliferation assay; type: cell-based, human
# Description: as §1
# DLBCL LMO2+ cell lines [4] = experiment: Colony-forming assay; type: cell-based, human; conditions: olaparib pretreatment 48 h, colonies after 14 days
# Description: Colony-forming assay: Clonogenic assays were performed as described elsewhere (McDonnell, Oncogene, 31(32), 3733-3740 (2012)). In total, 500 cells were pretreated with indicated olaparib concentration (0; 1; 10; 100; 1,000; and 10,000 nM) for 48 h and seeded in triplicate in MethoCult conditioned media (Stem Cell Technologies, Vancouver, Canada). After 14 days, macroscopic colonies were stained with iodonitrotetrazolium chloride (Sigma Aldrich) overnight and counted. Only colonies with 50 or more cells were counted.
# DLBCL LMO2+ cell lines [5] = experiment: Cell death analysis by Annexin V / propidium iodide flow cytometry; type: cell-based, human; conditions: 4 days, 1 μM olaparib
# From the text: FIG. 4A, MTS assay to evaluate effect of olaparib on the proliferation of human lymphoblasts (HCC1187), human primary lung fibroblasts (IMR90) and human lymphomas cells (LMO2 negative (U2932, OCI-Ly1) and LMO2 positive (DOHH2, OCI-Ly8, OCI-Ly19)). *P<0.0001. Two-way ANOVA. FIG. 4B, quantification of colony formation assays in OCI-Ly1, DOHH2, VaL and Val (LMO2 KO)-LMO2-null Val cells exposed to different concentrations of olaparib. Only colonies with 50 or more cells where counted. *P<0.001, Two-way ANOVA. FIG. 4C, quantification of the flow cytometer results for Propidium Iodide (PI) and Annexin V staining after 4 days in presence or absence of 1 μM olaparib for cell death analysis in the indicated lymphoma cell lines. FIG. 4D, representative pictures of colony formation assay quantified in FIG. 4B using DOHH2 cells. […] CI, Combination Index (CI<1 indicates a synergistic effect). FIG. 4F, quantification of γH2AX DNA damage foci in OCI-Ly8 cells exposed to or not exposed to olaparib during 24 hs.
# OCI-Ly8 cells = experiment: gammaH2AX DNA damage foci (immunofluorescence); type: cell-based, human; conditions: OCI-Ly8, 24 hs exposure
# Description: Immunofluorescence studies: For studying DNA break repair, DNA double-strand breaks were induced either by exposing the cells to ionization radiation (IR). DLBCL cell lines were exposed to gamma ray source at 10 Gy (cobalt 60 irradiator) and U2OS cells were exposed to 4 Gy. Alternatively double-stranded breaks were induced by adding Doxorubicin (12.5 ng/ml) to the culture during 16-20 hs. Cells were attached on a glass slide pre-coated with poly-lysine for 30 min. Cells were fixed with 4% Para-formaldehyde in 1×PBS for 15 min at room temperature. After fixing, cells were permeabilized using blocking solution (1 mg/ml BSA, 5% Goat/Horse normal serum, 0.5% TritonX-100) for 30 min. Cells were incubated with primary antibodies diluted in blocking solution for 1 h. Cells were washed three times with 1×PBS 5 min each. After washing, cells were incubated with secondary antibodies diluted in blocking solution, Alexa Fluor 488 or Alexa Fluor 594 for 30 min. Cells were then washed with 1×PBS twice for 5 min each wash. Nuclear DNA was visualized via DAPI (1 μg/ml) (Sigma Aldrich) staining for 15 min. Finally, cells were washed with 1×PBS for 15 min to remove excess stain and mounted with Prolong Gold antifade reagent (Invitrogen). Images were acquired using a Leica DMI6000 B Fluorescence microscope.
# [6] = test system: OCI-Ly1 xenografts (LMO2 negative); experiment: DLBCL subcutaneous xenograft model; type: in vivo, NOD/SCID mice; conditions: olaparib 50 mg/kg
# From the text: (§2) Subcutaneous xenograft tumors were generated by human DLBCL cells (OCI-Ly19 or OCI-Ly1) injected into NOD/SCID (5 million cells/mouse). Treatment started when tumor reached 100 mm^3 (˜10 days post-injection). FIG. 5A, Kaplan-Meier plots: OCI-Ly19 (n=per group: n=8 CTL, n=9 olaparib, n=5 RCHOP, n=5 RCHOP+olaparib) and OCI-Ly1 (n=5 per group). Mice were euthanized when the tumor volume reached 1500 mm^3 in accordance with the institutional guidelines. Statistical analysis was done by the log rank (Mantel-Cox) test. FIG. 5B, Ex vivo analyses of the tumors. The xenografts were generated as described above. Shown are representative FACS analyses of the OCI-Ly19 tumor cells exposed or not to olaparib during 3 days and stained with Annexin V and propidium iodide (PI). FIG. 5C, Tunnel assays in OCI-Ly19 tumor samples exposed or not to olaparib.
# (§3) All mice studies were conducted after approval of IACUC protocol. For DLBCL xenograft model, five-week-old female NOD/SCID mice (Harlan's) were subcutaneously injected with DLBCL cell line OCI-LY19 (5×10^6 cells/mouse) into the right flank. Once tumors reached 100 mm^3, mice were subdivided into two experimental groups (n=5-7/group). One group received buffer solution (1×PBS) and the other group received Olaparib (50 mg/kg; LC Labs, MA) for 21 consecutive days via IP injection. In separate experiments, one group received buffer solution (1×PBS), second group received Olaparib (50 mg/kg; LC Labs, MA), third group RCHOP (Rituximab 20 mg/kg, i.v. for a single dose on D1; cyclophosphamide, 40 mg/kg, D1; doxorubicin, 3.3 mg/kg, i.v. D1; vincristine, 0.5 mg/kg, i.v. D1; and prednisone, 0.2 mg/kg, every day by oral gavage on D1-5 and fourth group combination of Olaparib with RCHOP. Tumor bearing mice were observed every two days for tumor volume and weight loss was measured using standard calipers. Once the tumor volume exceeded 1500 mm^3 or the mouse […] dropped more than 10% total body weight, the mice were sacrificed.
# [7] = test system: OCI-Ly19 xenografts (LMO2 positive); experiment: DLBCL subcutaneous xenograft model; type: in vivo, NOD/SCID mice; conditions: for lifespan (survival): olaparib 50 mg/kg IP, 21 days, vs control group
# From the text: as §2, §3
# [8] = test system: primary human DLBCL tumors expressing or not LMO2; experiment: MTS assay in primary human tumor samples; type: cell-based; conditions: LMO2- and reactive follicular hyperplasia
# From the text: FIGS. 6A-6C: Olaparib and doxorubicin show synergy to kill primary DLBCL cells expressing LMO2. FIG. 6A, MTS assay to evaluate the effect of exposure to different concentrations of olaparib alone or in combination with doxorubicin in primary human DLBCL tumors expressing or not LMO2 and a Reactive follicular hyperplasia (LMO2−). CI, Combination Index (CI<1 indicates a synergistic effect). FIG. 6B, Western blots showing LMO2 level in human DLBCL cell lines (OCI-Ly1 (LMO2 negative), OCI-Ly19 (LMO2 positive), human primary lymphoblasts (HCC1187)), and primary human tumors (LMO2+, DLBCL expressing LMO2, LMO2−, DLBCL not expressing LMO2) and RFH-Reactive follicular hyperplasia not expressing LMO2. GAPDH was used as loading control. FIG. 6C, immunohistochemistry (IHC) for LMO2 in primary human DLBCL samples used for FIGS. 6A and 6B. H&E, hematoxylin and eosin staining.
# Primary tumors were obtained from DLBCL or no DLBCL patients following appropriate consent of the IRB approved protocol and single cell suspension generated using standard techniques.
# as §1
# [9] = test system: MOLT16 (LMO2-positive) versus Jurkat (LMO2-negative); experiment: MTS cell proliferation assay in T-ALL cell lines; type: cell-based, human; conditions: LMO2 expressing versus LMO2 negative T-ALL cell line, 4 days, p<0.001 by ANOVA
# From the text: (§4) FIG. 7A, quantification of cell proliferation via MTS assay in MOLT16 (LMO2+) and Jurkat (LMO2−) T cell lymphoblastic leukemia cell lines exposed to different concentrations of olaparib during 4 days. *P<0.001, Two-way ANOVA. FIG. 7B, quantification of the flow cytometer results for Annexin V staining after 4 days in presence or absence of indicated concentrations of olaparib for cell death analysis in the indicated T cell lymphoblastic leukemia cell lines.
# as §1
# [10] = test system: MOLT16 (LMO2-positive) versus Jurkat (LMO2-negative); experiment: Annexin V cell death analysis in T-ALL cell lines; type: cell-based, human; conditions: LMO2 expressing versus LMO2 negative T-ALL cell line, 4 days
# From the text: as §4
# [11] = breast cancer treated patients; cited from earlier work
smiles,measurement,setting,value
N.N.O=C([O-])C1(C(=O)[O-])CCC1.[Pt+2] [carboplatin],synergy with olaparib (carboplatin),"[1]; olaparib + carboplatin, OCI-Ly19 and DOHH2",showed synergy
O=C(c1cc(Cc2n[nH]c(=O)c3ccccc23)ccc1F)N1CCN(C(=O)C2CC2)CC1 [olaparib],IC50,DOHH2,120 nM
same,IC50,OCI-19,130 nM
same,IC50,OCI-Ly8,800 nM
same,cell proliferation,[2],decreases proliferation; also recorded: statistically significant (p<0.001 by ANOVA) decrease in cell proliferation
same,effect on DLBCL LMO2- and control cell lines,[3],no or minimal effect
same,colony formation,DLBCL LMO2+ cell lines [4],pronounced olaparib-mediated decrease in colony formation
same,cell death via apoptosis,DLBCL LMO2+ cell lines [5],induces cell apoptosis; also recorded: increased cell death via apoptosis
same,DNA damage (γH2AX foci),OCI-Ly8 cells,increased DNA damage
same,synergy with doxorubicin,"[1]; olaparib + doxorubicin, three DLBCL LMO2+ cell lines, preliminary studies",synergistic
same,lifespan (survival),[6],did not produce any effect
same,"cell death in tumors (Annexin V, PI, Tunnel assay)","[7]; OCI-Ly19 tumors, ex vivo analysis",increase in cell death
same,lifespan (survival),[7]; OCI-Ly19 xenografts,increased the lifespan
same,lifespan (survival),"[7]; OCI-Ly19 xenografts, listed as Olaparib",prolongs survival
same,lifespan in combination with RCHOP,"[7]; OCI-Ly19 xenografts, olaparib + RCHOP vs RCHOP",increased the life-span
same,tumor growth in vivo,"[7]; human DLBCL cells expressing LMO2, murine xenograft",slows growth
same,"proliferation capacity of primary tumor samples, olaparib alone",[8],only affected the proliferation capacity of the DLBCL sample expressing LMO2 protein
same,"proliferation capacity of primary tumor samples, olaparib in combination with doxorubicin",[8],only affected the proliferation capacity of the DLBCL sample expressing LMO2 protein
same,"proliferation capacity of primary tumor samples, olaparib in combination with doxorubicin",[8]; listed as Olaparib,show synergy
same,cell proliferation,[9],decreases proliferation
same,cell proliferation,[9]; listed as Olaparib,statistically significant (p<0.001 by ANOVA) decrease in cell proliferation
same,cell death,[10],induces cell apoptosis
same,cell death,[10]; listed as Olaparib,increase in cell death
same,concentration observed in the blood,[11],2000 nM
